Structures are written as SMILES.

The text below walks through data of patent publication US7056903B2, “Carboxylic acid derivatives as IP antagonists” (Syntex (U.S.A.) LLC, priority 2000, dated 2006).

For the compound `O=C(N[C@H](Cc1ccccc1)C(=O)O)OCc1cc2cc(-c3ccc4[nH]ccc4c3)ccc2o1` [Compound 138, (R)-2-[5-(1H-indol-5-yl)-benzofuran-2-ylmethoxycarbonylamino]-3-phenyl-propionic acid], the melting point is 90 to 95 °C. Next, `O=C(N[C@H](Cc1ccccc1)C(=O)O)OCc1ccc2oc(Cc3ccccc3)cc2c1` [Compound 139, (R)-2-(2-benzyl-benzofuran-5-ylmethoxycarbonylamino)-3-phenyl-propionic acid]: 108.8 to 110.5 °C; `O=C(N[C@H](Cc1ccc(F)cc1)C(=O)O)OCc1ccc2oc(-c3ccc(F)cc3)cc2c1` [Compound 140, (R)-3-(4-fluoro-phenyl)-2-[2-(4-fluoro-phenyl)-benzofuran-5-ylmethoxycarbonylamino]-propionic acid]: 201 to 204 °C; `O=C(NC(Cc1ccc(F)cc1)C(=O)O)OCc1ccc(-c2ccc(O)cc2)cc1` (stereo not drawn) [Compound 142, 3-(4-fluoro-phenyl)-2-(4′-hydroxy-biphenyl-4-ylmethoxycarbonylamino)-propionic acid]: 65 to 74 °C. The value for `O=C(NC(Cc1ccccc1)C(=O)O)OCCCc1ccc(-c2ccccc2)cc1` (stereo not drawn) [Compound 143, 2-(3-biphenyl-4-yl-propoxycarbonylamino)-3-phenyl-propionic acid] was 139.1 to 139.9 °C; that for `Cn1cc(C[C@@H](NC(=O)OCc2ccc(-c3ccccc3)cc2)C(=O)O)c2ccccc21` [Compound 145, (R)-2-(biphenyl-4-ylmethoxycarbonylamino)-3-(1-methyl-1H-indol-3-yl)-propionic acid] was 156.7 to 157.2 °C. The value for `CCn1cc(CC(NC(=O)OCc2ccc(-c3ccccc3)cc2)C(=O)O)c2ccccc21` (stereo not drawn) [Compound 147, 2-(biphenyl-4-ylmethoxycarbonylamino)-3-(1-ethyl-1Hindol-3-yl)-propionic acid] was 136.8 to 138.5 °C. Regarding `CC(C)n1cc(CC(NC(=O)OCc2ccc(-c3ccccc3)cc2)C(=O)O)c2ccccc21` (stereo not drawn) [Compound 148, 2-(biphenyl-4-ylmethoxycarbonylamino)-3-(1-isopropyl-1H-indol-3-yl)-propionic acid], the melting point lay within 143.1 to 144.8 °C.

`Cn1cc(C[C@@H](NC(=O)OCc2ccc(-c3ccccc3)cc2)C(=O)O)c2ccccc2c1=O` [Compound 149, (R)-2-(biphenyl-4-ylmethoxycarbonylamino)-3-(2-methyl-1-oxo-1,2-dihydro-isoquinolin-4-yl)-propionic acid] returned a melting point of 215 to 217 °C. Next, `O=C(N[C@H](Cc1nc2ccccc2[nH]1)C(=O)O)OCc1ccc(-c2ccccc2)cc1` [Compound 150, (R)-3-(1H-benzoimidazol-2-yl)-2-(biphenyl-4-ylmethoxycarbonylamino)-propionic acid]: 243 to 245 °C; `O=C(N[C@H](Cc1ccccc1)C(=O)O)OCc1ccc(COc2cccc3ncccc23)cc1` [Compound 152, (R)-3-phenyl-2-[4-(quinolin-5-yloxymethyl)-benzyloxycarbonylamino]-propionic acid]: 189.4 to 189.8 °C. In turn, `O=C(N[C@H](Cc1ccccc1)C(=O)O)OCc1ccc(Cn2ccc3ccccc32)cc1` [Compound 153, (R)-2-(4-indol-1-ylmethyl-benzyloxycarbonylamino)-3-phenyl-propionic acid] registered a melting point of 122 to 125 °C.

The compound `O=C(NC(Cc1ccccc1)C(=O)O)OCc1ccc(COc2ccc(Cl)cc2)cc1` (stereo not drawn) [Compound 155, 2-[4-(4-chloro-phenoxymethyl)-benzyloxycarbonylamino]-3-phenyl-propionic acid] yielded a melting point of 122 to 123.1 °C. In turn, `O=C(N[C@H](Cc1ccc(F)cc1)C(=O)O)OCc1ccc2oc(-c3ccc(F)cc3)nc2c1` [Compound 157, (R)-3-(4-fluoro-phenyl)-2-[2-(4-fluoro-phenyl)-benzoxazol-5-ylmethoxycarbonylamino]-propionic acid] displayed a melting point of 197.1 to 198.7 °C.

Consider `O=C(N[C@H](Cc1ccccc1)C(=O)O)OCc1ccc2oc(-c3ccc(F)cc3)nc2c1` [Compound 158, (R)-2-[2-(4-fluoro-phenyl)-benzoxazol-5-ylmethoxycarbonylamino]-3-phenyl-propionic acid], for which the melting point was in the range of 208.2 to 208.5 °C. The value for `N#Cc1cccc(-c2nc3cc(COC(=O)N[C@H](Cc4ccc(F)cc4)C(=O)O)ccc3o2)c1` [Compound 159, (R)-2-[2-(3-cyano-phenyl)-benzoxazol-5-ylmethoxycarbonylamino]-3-(4-fluoro-phenyl)-propionic acid] was 208.5 to 209.2 °C; that for `O=C(N[C@H](Cc1ccc(F)cc1)C(=O)O)OCc1ccc2oc(-c3cc(F)cc(F)c3)nc2c1` [Compound 160, (R)-2-[2-(3,5-difluoro-phenyl)-benzoxazol-5-ylmethoxycarbonylamino]-3-(4-fluoro-phenyl)-propionic acid] was 196.2 to 197.7 °C; that for `O=C(N[C@H](Cc1ccccc1)C(=O)O)OCc1ccc2oc(-c3cccc4[nH]ccc34)nc2c1` [Compound 161, (R)-2-[2-(1H-indol-4-yl)-benzoxazol-5-ylmethoxycarbonylamino]-3-phenyl-propionic acid] was 187 to 189 °C. Next, `O=C(N[C@H](Cc1ccccc1)C(=O)O)OCc1ccc2oc(-c3cc(F)cc(F)c3)nc2c1` [Compound 162, (R)-2-[2-(3,5-difluoro-phenyl)-benzoxazol-5-ylmethoxycarbonylamino]-3-phenyl-propionic acid]: 193.8 to 195 °C; `O=C(NC(Cc1ccncc1)C(=O)O)OCc1cc2cc(-c3ccccc3)ccc2o1` (stereo not drawn) [Compound 163, 2-(5-phenyl-benzofuran-2-ylmethoxycarbonylamino)-3-pyridin-4-yl-propionic acid]: 219 to 220 °C.

Consider `O=C(NC(Cc1cccnc1)C(=O)O)OCc1cc2cc(-c3ccccc3)ccc2o1` (stereo not drawn) [Compound 164, 2-(5-Phenyl-benzofuran-2-ylmethoxycarbonylamino)-3-pyridin-3-yl-propionic acid], for which the melting point is 164 to 169 °C. The value for `O=C(NC(Cc1cnccn1)C(=O)O)OCc1cc2cc(-c3ccccc3)ccc2o1` (stereo not drawn) [Compound 165, 2-(5-phenyl-benzofuran-2-ylmethoxycarbonylamino)-3-pyrazin-2-yl-propionic acid] was 144.9 to 146 °C; that for `O=C(NC(Cc1cccnn1)C(=O)O)OCc1cc2cc(-c3ccccc3)ccc2o1` (stereo not drawn) [Compound 167, 2-(5-phenyl-benzofuran-2-ylmethoxycarbonylamino)-3-pyridazin-3-yl-propionic acid] was 174.7 to 175 °C; that for `O=C(NC(Cc1ccccc1)C(=O)O)OCc1ccc(CCCc2ccccc2)cc1` (stereo not drawn) [Compound 168, 3-Phenyl-2-[4-(3-phenyl-propyl)-benzyloxycarbonylamino]-propionic acid] was 134.8 to 135.2 °C. Next, `Cn1cc(C[C@@H](NC(=O)OCc2ccc(COc3ccccc3)cc2)C(=O)O)c2ccccc21` [Compound 170, (R)-3-(1-methyl-1H-indol-3-yl)-2-(4-phenoxymethyl-benzyloxycarbonylamino)-propionic acid]: 79.9 to 82.6 °C. The value for `O=C(NC(Cc1cccc(NS(=O)(=O)c2ccccc2)c1)C(=O)O)OCc1cc2cc(-c3ccccc3)ccc2o1` (stereo not drawn) [Compound 171, 3-(3-Benzenesulfonylamino-phenyl)-2-(5-phenyl-benzofuran-2-ylmethoxycarbonylamino)-propionic acid] was 105 to 108 °C; that for `O=C(NC(Cc1ccccc1)C(=O)O)OCc1coc2ccc(-c3ccccc3)cc12` (stereo not drawn) [Compound 172, 2-(5-Phenyl-benzofuran-3-ylmethoxycarbonylamino)-3-phenyl-propionic acid] was 177.6 to 178.6 °C. Compound `O=C(NC(Cc1cncnc1)C(=O)O)OCc1cc2cc(-c3ccccc3)ccc2o1` (stereo not drawn) [Compound 173, 2-(5-phenyl-benzofuran-2-ylmethoxycarbonylamino)-3-pyrimidin-5-yl-propionic acid] showed a melting point of 181.4 to 184.5 °C. Next, `O=C(NC(Cc1ccccc1)C(=O)O)OCc1cc2cc(-c3ccncc3)ccc2o1` (stereo not drawn) [Compound 174, 3-phenyl-2-(5-pyridin-4-yl-benzofuran-2-ylmethoxycarbonylamino)-propionic acid]: 119 to 121 °C; `O=C(NC(Cc1ccccc1)C(=O)O)OCc1cc2cc(-c3cncnc3)ccc2o1` (stereo not drawn) [Compound 175, 3-phenyl-2-(5-pyrimidin-5-yl-benzofuran-2-ylmethoxycarbonylamino)-propionic acid]: 192 to 192.5 °C. Next, `O=C(NC(Cc1ccncc1)C(=O)O)OCc1cc2cc(-c3ccc(F)cc3)ccc2o1` (stereo not drawn) [Compound 176, 2-[5-(4-fluoro-phenyl)-benzofuran-2-ylmethoxycarbonylamino]-3-pyridin-4-yl-propionic acid]: 255.2 to 255.7 °C; `O=C(NC(Cc1ccc(F)cc1)C(=O)O)OCc1cc2cc(-c3cc(Cl)cc(Cl)c3)ccc2o1` (stereo not drawn) [Compound 177, 2-[5-(3,5-dichloro-phenyl)-benzofuran-2-ylmethoxycarbonylamino]-3-(4-fluoro-phenyl)-propionic acid]: 101.1 to 103.2 °C; `O=C(NC(CNc1ccccc1)C(=O)O)OCc1ccc(-c2ccccc2)cc1` (stereo not drawn) [Compound 179, 2-(biphenyl-4-ylmethoxycarbonylamino)-3-phenylamino-propionic acid]: 143 to 146 °C.

`COc1ccc(NCC(NC(=O)OCc2ccc(-c3ccccc3)cc2)C(=O)O)cc1` (stereo not drawn) [Compound 180, 2-(biphenyl-4-ylmethoxycarbonylamino)-3-(4-methoxy-phenylamino)-propionic acid] gave a melting point of 152.6 to 154.8 °C. Next, `O=C(NC(Cc1ccccc1)C(=O)O)OCc1ccc(NC(=O)c2ccccc2)cc1` (stereo not drawn) [Compound 181, 2-(4-benzoylamino-benzyloxycarbonylamino)-3-phenyl-propionic acid]: 196.9 to 198.1 °C; `O=C(NC(Cc1ccccc1)C(=O)O)OCc1ccc(C#Cc2ccccc2)cc1` (stereo not drawn) [Compound 182, 3-phenyl-2-(4-phenylethynyl-benzyloxycarbonylamino)-propionic acid]: 172.1 to 173.4 °C.
